Measurements as given in patent US5173297A, “Bacteriocin from Lactococcus lactis subspecies lactis” (Quest International Flavors & Food Ingredients Company …, priority 1991, dated 1992).

Columns and labels:
Experiment in all cases: Spectrum of antimicrobial activity
Set-up in all cases: key: + = inhibition; - = no inhibition
Settings in all cases: pure, titer 3200 AU/ml
[1] = system: L. plantarum 346; type: cell-based, Lactobacillus plantarum
[2] = system: L. plantarum 355; type: cell-based, Lactobacillus plantarum
[3] = system: L. casei 326; type: cell-based, Lactobacillus casei
[4] = system: L. casei 842; type: cell-based, Lactobacillus casei
[5] = system: L. brevis 329; type: cell-based, Lactobacillus brevis
[6] = system: L. brevis 888; type: cell-based, Lactobacillus brevis
[7] = system: L. fermentum 342; type: cell-based, Lactobacillus fermentum
[8] = system: L. fermentum 701; type: cell-based, Lactobacillus fermentum
[9] = system: P. acidilactici PAC 1.0; type: cell-based, Pediococcus acidilactici
[10] = system: P. acidilactici A; type: cell-based, Pediococcus acidilactici
[11] = system: P. acidilactici B; type: cell-based, Pediococcus acidilactici
[12] = system: P. acidilactici C; type: cell-based, Pediococcus acidilactici
[13] = system: P. acidilactici D; type: cell-based, Pediococcus acidilactici
[14] = system: P. pentosaceus FBB63C; type: cell-based, Pediococcus pentosaceus
Procedure: Colonies appearing on the agar plates were screened for antibacterial activity against a selected indicator, which usually predicted a wide antibacterial spectrum. The indicator chosen was Pediococcus pentosaceus FBB63C (Gonzalez, C. F., and B. S. Kunka, Appl. Environ. Microbiol. 53:2534-2538 (1987) and U.S. Pat. No. 4,883,673 to Gonzalez. Antibacterial activity was determined by picking colonies to replicate agar plates containing 1.9% sodium beta-glycerophosphate as buffer and after appearance of colonies overlaying with indicator.
To ascertain if the antibacterial substance is secreted into liquid medium, the cultures were grown in MRS broth and cell free filtrates of turbid cultures were made and the filtrate posted on a seeded semisolid agar overlay of the indicator. Antibacterial activity was quantitated by assigning arbitrary units. One arbitrary unit (AU) was defined as 5 μl of the culture supernatant yielding a definite, clear zone of inhibition on the indicator lawn. The titer was expressed as the reciprocal of the highest dilution of supernatant showing inhibition.

[15] = system: L. monocytogenes 04; type: cell-based, Listeria monocytogenes
[16] = system: L. monocytogenes 08; type: cell-based, Listeria monocytogenes
[17] = system: L. monocytogenes 36; type: cell-based, Listeria monocytogenes
[18] = system: L. monocytogenes 38; type: cell-based, Listeria monocytogenes
[19] = system: L. monocytogenes 59; type: cell-based, Listeria monocytogenes
[20] = system: L. monocytogenes 62; type: cell-based, Listeria monocytogenes
[21] = system: L. monocytogenes 69; type: cell-based, Listeria monocytogenes
[22] = system: S. mutans GS5; type: cell-based, Streptococcus mutans
[23] = system: S. mutans V262; type: cell-based, Streptococcus mutans
[24] = system: B. subtilis RM125; type: cell-based, Bacillus subtilis
[25] = system: B. subtilis amylase^+; type: cell-based, Bacillus subtilis
[26] = system: L. lactis LLA 1.0; type: cell-based, Lactococcus lactis
[27] = system: L. lactis LLA 2.0; type: cell-based, Lactococcus lactis

nisin [Nisin Pure]
+: inhibition of indicator strain L. plantarum 346 [1] | inhibition of indicator strain L. plantarum 355 [2] | inhibition of indicator strain L. casei 326 [3] | inhibition of indicator strain L. casei 842 [4] | inhibition of indicator strain L. brevis 329 [5] | inhibition of indicator strain L. brevis 888 [6] | inhibition of indicator strain L. fermentum 342 [7] | inhibition of indicator strain L. fermentum 701 [8] | inhibition of indicator strain P. acidilactici PAC 1.0 [9] | inhibition of indicator strain P. acidilactici A [10] | inhibition of indicator strain P. acidilactici B [11] | inhibition of indicator strain P. acidilactici C [12] | inhibition of indicator strain P. acidilactici D [13] | inhibition of indicator strain P. pentosaceus FBB63C [14] | inhibition of indicator strain L. monocytogenes 04 [15] | inhibition of indicator strain L. monocytogenes 08 [16] | inhibition of indicator strain L. monocytogenes 36 [17] | inhibition of indicator strain L. monocytogenes 38 [18] | inhibition of indicator strain L. monocytogenes 59 [19] | inhibition of indicator strain L. monocytogenes 62 [20] | inhibition of indicator strain L. monocytogenes 69 [21] | inhibition of indicator strain S. mutans GS5 [22] | inhibition of indicator strain B. subtilis RM125 [24] | inhibition of indicator strain B. subtilis amylase^+ [25] | inhibition of indicator strain L. lactis LLA 1.0 [26] | inhibition of indicator strain L. lactis LLA 2.0 [27]
-: inhibition of indicator strain S. mutans V262 [23]
